Laboratory results: patent US7488732B2, “2-substituted pyrimidines” (BASF Aktiengesellschaft, priority 2003, dated 2009)

Experiments:
Botrytis cinerea = test: Activity against gray mold on capsicum leaves caused by Botrytis cinerea, protective application; format: in vivo; conditions: 250 ppm, protective spray on capsicum seedlings, rated after 5 days; untreated control 90% infection
Protocol: The active compounds were prepared as a stock solution with 0.25% by weight of active compound in acetone or DMSO. 1% by weight of the emulsifier Uniperol® EL (wetting agent having emulsifying and dispersing action based on ethoxylated alkylphenols) was added to this solution, and the solution was diluted with water to the desired concentration. 2. Activity against gray mold on capsicum leaves caused by Botrytis cinerea, protective application Capsicum seedlings of the cultivar “Neusiedler Ideal Elite” were, after 4-5 leaves had fully developed, sprayed to runoff point with an aqueous suspension of the active compound concentration given below. The next day, the treated plants were inoculated with a spore suspension of Botrytis cinerea comprising 1.7×10^6 spores/ml in a 2% aqueous biomalt solution. The test plants were subsequently placed in a climatized chamber at 22 to 24° C. and high atmospheric humidity. After 5 days, the extent of the fungal infection on the leaves could be determined visually in %.

Sphaerotheca fuliginea = test: Activity against mildew on cucumber leaves caused by Sphaerotheca fuliginea, protective application; format: in vivo; conditions: 250 ppm, protective spray on cucumber seedlings, rated after 7 days; untreated control 90% infection
Protocol: The active compounds were prepared as a stock solution with 0.25% by weight of active compound in acetone or DMSO. 1% by weight of the emulsifier Uniperol® EL (wetting agent having emulsifying and dispersing action based on ethoxylated alkylphenols) was added to this solution, and the solution was diluted with water to the desired concentration. 3. Activity against mildew on cucumber leaves caused by Sphaerotheca fuliginea, protective application Leaves of potted cucumber seedlings of the cultivar “Chinese snake” were, at the cotyledon stage, sprayed to runoff point with an aqueous suspension of the active compound concentration given below. 20 hours after the spray coating had dried on, the plants were inoculated with an aqueous spore suspension of mildew of cucumber (Sphaerotheca fuliginea). The plants were then cultivated in a greenhouse at temperatures between 20 and 24° C. and 60 to 80% relative atmospheric humidity for 7 days. The extend of the mildew development was then determined visually in % infection of the coltyledon area.

CCC(C)Cc1nc(C#N)nc(C)c1-c1c(F)cc(F)cc1F (centres unmarked) [I-4, 2-Cyano-4-methyl-5-(2,4,6-trifluorophenyl)-6-(2-methylbutyl)pyrimidine]
infection (gray mold on leaves, determined visually in %) (Botrytis cinerea): no infection | infection (mildew, determined visually in % infection of the cotyledon area) (Sphaerotheca fuliginea): no infection
